Where a SMILES comes first, the peptide text is derived from it. [ ]: non-standard residue; d: D form. Tyr(3-I) = N[C@@H](Cc1ccc(O)c(I)c1)C(=O)O; Sta = CC(C)C[C@H](N)[C@@H](O)CC(=O)O; AEEA = NCCOCCOCC(=O)O
What was measured:
PC-3 cells [1] = test: In vitro binding specificity assay; format: cell-based, human; conditions: 1 nM, 1 h at 37 °C; 200-fold excess NOTA-PEG4-RM26 for blocking
Procedure: (§1) The in vitro binding specificity test of [^125I]I-Tyr-PEG2-RM26 was performed on PC-3 and DU-145 cell lines. […] The cells were incubated with 1 nM concentration of [^125I]I-Tyr-PEG2-RM26 solution for 1 h at 37 °C. To saturate GRPR, one set of dishes was treated with 200-fold molar excess of non-labelled peptide, NOTA-PEG4-RM26, 15 min before adding the radiolabelled compound. After washing with serum-free media, cells were detached by treatment with 1 mL trypsin-EDTA solution twice. Cell-associated radioactivity was measured in the gamma-counter and presented as percentage of cell-associated activity.

DU-145 cells = test: In vitro binding specificity assay; format: cell-based, human; conditions: 1 nM, 1 h at 37 °C; 200-fold excess NOTA-PEG4-RM26 for blocking
Procedure: as §1

[2] = Procedure: Lipophilicity was determined as the logarithm of partition coefficient, logP, of the radiolabelled compound between n-octanol and water. To determine the lipophilicity of both radioconjugates, 500 µL of n-octanol was added to a tube containing the same volume of Milli-Q water. 1 pmol (10 kBq) of radioconjugate was added. The mixture was vigorously vortexed for 1–2 min and then centrifuged. Aliquots of 100 μL were taken from each phase and their radioactivity was measured by an automated gamma-counter. The partition coefficient was calculated as the average log of a ratio of the radioactivity in organic and aqueous fractions. Each measurement was repeated in triplicate.
in vivo = conditions: mouse, iv; for tissue to tissue ratio at 0.5 h / tissue to tissue ratio at 3 h / tissue to tissue ratio at 24 h: female, BALB/c nu/nu, total radioactivity; for tissue uptake at 0.5 h / tissue uptake at 3 h / tissue uptake at 24 h: 40 pmol, 40 pmol i.v.; for tissue uptake at 0.5 h: 0.5 h after injection; for tissue uptake at 3 h: 3 h after injection; for tissue uptake at 24 h: 24 h after injection
Procedure: (§2) Animal studies were planned and performed in agreement with EU Directive 2010/63/EU for animal experiments and Swedish national legislation concerning protection of laboratory animals. Experiments were approved by the Ethics Committee for Animal Research in Uppsala (C4/16, 26 February 2016). Biodistribution studies were performed in female BALB/C nu/nu mice purchased from Scanbur A/S (Karlslunde, Denmark). GRPR-expressing xenografts were established by subcutaneous injection of 5 × 10^6 PC-3 cells/mouse in the right hind leg of mice 3 weeks before the experiment. The animals were randomized into groups of four mice for each data point.
(§3) Mice were euthanized followed by dislocation of their neck at 0.5 h after injection and blood samples were collected by heart puncture. At 3 and 24 h after injection, mice were euthanized by an intraperitoneal injection of anaesthetic solution (20 µL of solution per gram of body weight: Ketalar, 10 mg/mL; Rompun, 1 mg/mL) followed by heart puncture. Salivary glands, thyroid, lung, liver, spleen, pancreas, stomach, small intestine, kidneys, tumour, muscle, and bone were collected and weighed. The organ radioactivity was measured in a gamma-counter and uptake values of organs were calculated as percentage of injected dose per gram tissue (% ID/g). To test the in vivo binding specificity, a group of mice was co-injected with 7.5 nmol of non-labelled peptide (NOTA-PEG4-RM26), and biodistribution was measured at 0.5 h after injection.

[3] = system: GRPR-expressing PC-3 tumour xenograft; test: in vivo; conditions: PC-3 xenograft
Procedure: as §2, §3

[4] = 0.5 h; 300 µg phosphoramidon co-injected; non-tumour bearing NMRI mice
Procedure: Two groups of 4 mice were used for this experiment. Biodistribution of [^125I]I-Tyr-PEG2-RM26 was evaluated in female NMRI mice (weight: 29.6 ± 1.7 g). Non-tumour bearing mice as a control group were injected with 40 pmol of [^125I]I-Tyr-PEG2-RM26 (30 kBq, 100 μL in PBS) into the tail vein. Another group of mice was injected with same activity by co-injection of PA (15 µL of 20 mg/mL stock solution, 300 µg). After 0.5 h, mice were euthanized by dislocation of their neck, and blood samples were collected. Salivary glands, thyroid, lung, liver, spleen, pancreas, stomach, small intestine, kidneys, […], muscle, and bone were collected and weighed. The organ radioactivity was measured in a gamma-counter and uptake values of organs were calculated as percentage injected dose per gram tissue (% ID/g).

[5] = system: GRPR-expressing PC-3 tumour xenograft; conditions: 0.5 h after injection; co-injection of non-labelled NOTA-PEG4-RM26
Procedure: as §2
as §3, with “Salivary glands, thyroid, lung, liver, spleen, pancreas, stomach, small intestine, kidneys, tumour, muscle, and bone were collected and weighed.” left out

PC-3 cells [6] = test: Cell-associated radioactivity in presence of lysosomotropic bases or sodium azide/2-deoxyglucose; format: cell-based, human; conditions: 1 nM, 100 µM chloroquine, 20 mM ammonium chloride, 2-8 h at 37 °C
Procedure: Additionally, PC-3 cells were incubated with 1 nM of [^125I]I-Tyr-PEG2-RM26 in presence of 20 mM sodium azide/10 mM 2-deoxyglucose at 37 °C for 8 h. […] At predetermined time points (2, 4, and 8 h), media from a set of three dishes was removed, cells were detached by trypsin-EDTA solution, re-suspended, and radioactivity in cells was measured.

[7] = small intestine, small intestine

## CC(C)C[C@H](NC(=O)C[C@H](O)[C@H](CC(C)C)NC(=O)[C@H](Cc1c[nH]cn1)NC(=O)CNC(=O)[C@@H](NC(=O)[C@H](C)NC(=O)[C@H](Cc1c[nH]c2ccccc12)NC(=O)[C@H](CCC(N)=O)NC(=O)[C@@H](Cc1ccccc1)NC(=O)COCCOCCNC(=O)[C@@H](N)Cc1ccc(O)c(I)c1)C(C)C)C(N)=O [[^125I]I-Tyr-PEG2-RM26] (H-[Tyr(3-I)][AEEA][dF]QWAVGH[Sta]L-NH2)
PC-3 cells [1]
  Binding specificity to PC-3 cells: receptor mediated
DU-145 cells
  Binding specificity to DU-145 cells: receptor mediated
[2]
  logP: 1 ± 0.1
In vivo; tumour and bone
  tissue to tissue ratio at 0.5 h: 1.9 ± 0.2
  tissue to tissue ratio at 3 h: 1.9 ± 0.3
In vivo; tumour and kidney
  tissue to tissue ratio at 0.5 h: 0.5
  tissue to tissue ratio at 3 h: 0.3 ± 0.1
  tissue to tissue ratio at 24 h: 0.1
In vivo; tumour and liver
  tissue to tissue ratio at 0.5 h: 0.8 ± 0.2
  tissue to tissue ratio at 3 h: 0.8 ± 0.2
  tissue to tissue ratio at 24 h: 0.6 ± 0.5
In vivo; tumour and lung
  tissue to tissue ratio at 0.5 h: 0.8
  tissue to tissue ratio at 3 h: 0.6 ± 0.1
  tissue to tissue ratio at 24 h: 1 ± 0.6
In vivo; tumour and muscle
  tissue to tissue ratio at 0.5 h: 3.6 ± 0.4
  tissue to tissue ratio at 3 h: 3.7 ± 0.6
In vivo; tumour and pancreas
  tissue to tissue ratio at 0.5 h: 0.7 ± 0.1
  tissue to tissue ratio at 3 h: 0.9 ± 0.1
In vivo; tumour and salivary gland
  tissue to tissue ratio at 0.5 h: 1.3 ± 0.6
  tissue to tissue ratio at 3 h: 1.2 ± 0.3
In vivo; tumour and small intestine
  tissue to tissue ratio at 0.5 h: 1.1 ± 0.6
  tissue to tissue ratio at 3 h: 1.3 ± 0.4
In vivo; tumour and spleen
  tissue to tissue ratio at 0.5 h: 1.3 ± 0.2
  tissue to tissue ratio at 3 h: 1.1 ± 0.1
In vivo; tumour and stomach
  tissue to tissue ratio at 0.5 h: 0.6 ± 0.2
  tissue to tissue ratio at 3 h: 0.5 ± 0.1
In vivo; tumour and thyroid
  tissue to tissue ratio at 0.5 h: 1 ± 0.5
  tissue to tissue ratio at 3 h: 1.2 ± 0.6
In vivo; tumour and whole blood
  tissue to tissue ratio at 0.5 h: 0.7
  tissue to tissue ratio at 3 h: 0.8 ± 0.1
  tissue to tissue ratio at 24 h: 6 ± 4
In vivo; blood, blood
  tissue uptake at 0.5 h: 10.2 ± 1.5 %ID/g
  tissue uptake at 3 h: 2.9 ± 1.5 %ID/g
  tissue uptake at 24 h: 0.02 %ID/g
In vivo; bone, bone
  tissue uptake at 0.5 h: 3.8 ± 0.8 %ID/g
  tissue uptake at 3 h: 1.1 ± 0.5 %ID/g
In vivo; kidney, kidney
  tissue uptake at 0.5 h: 13.2 ± 1.8 %ID/g
  tissue uptake at 3 h: 6.1 ± 1.1 %ID/g
  tissue uptake at 24 h: 1.5 ± 0.3 %ID/g
In vivo; liver, liver
  tissue uptake at 0.5 h: 8.9 ± 3.1 %ID/g
  tissue uptake at 3 h: 2.6 ± 1.1 %ID/g
  tissue uptake at 24 h: 0.2 %ID/g
In vivo; lung, lung
  tissue uptake at 0.5 h: 9.1 ± 1.2 %ID/g
  tissue uptake at 3 h: 3.5 ± 1.4 %ID/g
  tissue uptake at 24 h: 0.2 ± 0.1 %ID/g
In vivo; muscle, muscle
  tissue uptake at 0.5 h: 2 %ID/g
  tissue uptake at 3 h: 0.6 ± 0.3 %ID/g
In vivo; pancreas, pancreas
  tissue uptake at 0.5 h: 10.1 ± 1.2 %ID/g
  tissue uptake at 3 h: 2.3 ± 0.6 %ID/g
In vivo; salivary gland, salivary gland
  tissue uptake at 0.5 h: 6.6 ± 3.7 %ID/g
  tissue uptake at 3 h: 2 ± 1.2 %ID/g
In vivo; [7]
  tissue uptake at 0.5 h: 7.3 ± 3 %ID/g
  tissue uptake at 3 h: 1.8 ± 0.7 %ID/g
In vivo; spleen, spleen
  tissue uptake at 0.5 h: 5.4 ± 0.8 %ID/g
  tissue uptake at 3 h: 2 ± 0.8 %ID/g
In vivo; stomach, stomach
  tissue uptake at 0.5 h: 13.2 ± 7.2 %ID/g
  tissue uptake at 3 h: 4.6 ± 2.7 %ID/g
  tissue uptake at 24 h: 0.1 %ID/g
In vivo; thyroid, thyroid
  tissue uptake at 0.5 h: 8.2 ± 3.7 %ID/g
  tissue uptake at 3 h: 2.2 ± 1.6 %ID/g
In vivo; tumour, tumour, non-blocked
  tissue uptake at 0.5 h: 7 ± 0.8 %ID/g
In vivo; tumour, tumour
  tissue uptake at 3 h: 2.1 ± 0.8 %ID/g
[3]
  Decrease of tumour uptake at 3 h compared to 0.5 h after injection: more than 3 fold
[4]
  Influence of PA co-injection on blood clearance rate or uptake in normal non-targeted organs and tissues: did not show any significant influence
  Uptake in GRPR-positive organs (pancreas, small intestines, stomach) after co-injection of PA: No significant increase
[5]
  Uptake in pancreas, blocked vs non-blocked group: significantly (p < 0.05) reduced
PC-3 cells [6]
  Cell-bound activity and retention in presence of chloroquine and ammonium chloride vs control: considerably higher compared to control

Reference: publication PMC6724035, “Evaluation of Tumor-Targeting Properties of an Antagonistic Bombesin Analogue RM26 Conjugated with a Non-Residualizing Radioiodine Label Comparison with a Radiometal-Labelled Counterpart” (Pharmaceutics, 2019)
